Reference: patent US20170157013A1, “Metal Amino Acid Complexes for Bacterial Aggregation” (Colgate-Palmolive Company, priority 2015, published 2017)

How the values were obtained:
[1] = tested on: oral bacteria in stimulated whole saliva; assay: Aggregation of oral bacteria in stimulated whole saliva, culture dish wells; format: cell-based, human; conditions: 15 minutes at room temperature
Experimental: Stimulated whole saliva from a human volunteer was harvested and mixed either with an untreated control (water), metal salt solutions (0.2% zinc oxide or 0.1% zinc oxide/0.05% zinc citrate mixture), amino acid solutions (0.3% arginine, 1% arginine, or 0.94% lysine), or metal-amino acid complex solutions (1.2% zinc-lysine complex, 1.33% zinc-arginine complex, or 1% copper-lysine complex) as described in the present disclosure. The solutions were incubated for 15 minutes at room temperature in culture dish wells, then photographs were taken.

[2] = tested on: Streptococcus oralis; assay: Quantitative bacterial aggregation by absorbance at 610 nm, S. oralis; format: cell-based; conditions: for OD610: 0.9% NaCl; for change in OD (610 nm) over the course of the experiment / time by which significant drop in absorbance has occurred / time of peak of absorbance: S. oralis; for change in OD (610 nm) over the course of the experiment: about one hour
Experimental: To evaluate the aggregation quantitatively, Streptococcus oralis bacteria was suspended in sterile 0.9% NaCl medium in capped culture tubes. To each tube, a different test sample was added, and the absorbance of the medium at […] was monitored over a period of about one hour. Bacteria of this size will remain suspended in solution for several hours before settling out under gravity. This gives such a solution a uniform haziness or opacity that can be quantified by measuring the absorbance of the solution at 610 nm. The aggregation of bacteria results in clumps of bacterial matter, which initially raises absorbance, followed by a sharp drop in absorbance as the bacterial matter settles out, leaving an increasingly transparent solution. Therefore, a decrease in absorbance signals the formation of bacterial aggregates.

[3] = tested on: A. viscous bacteria; assay: Quantitative bacterial aggregation by absorbance at 610 nm, A. viscous; format: cell-based; conditions: for final test result, absorbance at 610 nm: A. viscous, end of experiment
[4] = Stability of ZLC in solution (low-pH preparation); format: physicochemical; conditions: final reaction mixture, clear, slightly acidic pH (<pH 7)
Experimental: In an alternative method, lysine HCl (2 molar equivalents) is dissolved in deionized water with stirring at room temperature. Concentrated hydrochloric acid equal to approximately 0.5 molar equivalent is added to the reaction mixture. ZnO (1 molar equivalent) is then added to the reaction mixture, and the mixture is stirred until complete dissolution occurs, typically within a minutes to a few hours. The pH of the reaction is kept at 6 or below. The ZLC complex can be kept in solution in the final reaction mixture, which is clear, for more than 3 months at slightly acidic pH (i.e., <pH 7) without precipitation of ZnO. Alternatively, the reaction mixture can be spray dried to yield ZLC powder, or the reaction mixture can be adjusted to a near-neutral pH (e.g., 6.8), and the crystalline salt of ZLC can be isolated upon slow evaporation of the concentrated ZLC reaction mixture.

[5] = 0.2% zinc oxide, 0.1% zinc oxide/0.05% zinc citrate, 0.3% arginine, 0.94% lysine, 1.2% zinc-lysine, 1.33% zinc-arginine, 1% copper-lysine
[6] = 1 minute, 1.5% arginine, 0.94% lysine, 0.35% ZnCl2, 1.2% Zn-Lys, 1.33% Zn-Arg
[7] = 9 minutes, 1.5% arginine, 0.94% lysine, 0.35% ZnCl2, 1.2% Zn-Lys, 1.33% Zn-Arg
[8] = 21 minutes, 1.5% arginine, 0.94% lysine, 0.35% ZnCl2, 1.2% Zn-Lys, 1.33% Zn-Arg
[9] = 28 minutes, 1.5% arginine, 0.94% lysine, 0.35% ZnCl2, 1.2% Zn-Lys, 1.33% Zn-Arg
[10] = 40 minutes, 1.5% arginine, 0.94% lysine, 0.35% ZnCl2, 1.2% Zn-Lys, 1.33% Zn-Arg
[11] = 55 minutes, 1.5% arginine, 0.94% lysine, 0.35% ZnCl2, 1.2% Zn-Lys, 1.33% Zn-Arg
[12] = 1.5% arginine, 0.94% lysine, 0.35% zinc chloride, 1.2% zinc-lysine complex, 1.33% zinc-arginine complex
[13] = 1 minute, 1.5% arginine, 0.94% lysine, 0.35% ZnCl2, 1.2% Zn-Lysine, 1.33% Zn-Arg
[14] = 14 minutes, 1.5% arginine, 0.94% lysine, 0.35% ZnCl2, 1.2% Zn-Lysine, 1.33% Zn-Arg
[15] = 27 minutes, 1.5% arginine, 0.94% lysine, 0.35% ZnCl2, 1.2% Zn-Lysine, 1.33% Zn-Arg
[16] = 46 minutes, 1.5% arginine, 0.94% lysine, 0.35% ZnCl2, 1.2% Zn-Lysine, 1.33% Zn-Arg
[17] = 66 minutes, 1.5% arginine, 0.94% lysine, 0.35% ZnCl2, 1.2% Zn-Lysine, 1.33% Zn-Arg
[18] = 1.2% zinc-lysine complex, 1.33% zinc-arginine complex

Molecule | observation of aggregate formation in saliva [1, 5] | OD610 [2, 6] | OD610 [2, 7] | OD610 [2, 8] | OD610 [2, 9] | OD610 [2, 10] | OD610 [2, 11] | change in OD (610 nm) over the course of the experiment [2, 12] | OD610 [3, 13] | OD610 [3, 14] | OD610 [3, 15] | OD610 [3, 16] | OD610 [3, 17] | other results
N=C(N)NCCC[C@H](N)C(=O)O [Arginine, arginine] | no change was observed compared to the negative control | 0.492 | 0.473 | 0.455 | 0.449 | 0.441 | 0.428 | no appreciable change in OD (610 nm) or a rise in OD (610 nm) | 0.438 | 0.432 | 0.427 | 0.418 | 0.424 | observation of aggregate formation in saliva ([1]; 1% arginine): no change was observed compared to the negative control; OD610 ([2]; 1 minute, 5% arginine): 0.496; OD610 ([2]; 9 minutes, 5% arginine): 0.468; OD610 ([2]; 21 minutes, 5% arginine): 0.450; OD610 ([2]; 28 minutes, 5% arginine): 0.446; OD610 ([2]; 40 minutes, 5% arginine): 0.440; OD610 ([2]; 55 minutes, 5% arginine): 0.435; change in OD (610 nm) over the course of the experiment ([2]; 5% arginine): no appreciable change in OD (610 nm) or a rise in OD (610 nm); OD610 ([3]; 1 minute, 5% arginine): 0.341; OD610 ([3]; 14 minutes, 5% arginine): 0.334; OD610 ([3]; 27 minutes, 5% arginine): 0.335; OD610 ([3]; 46 minutes, 5% arginine): 0.333; OD610 ([3]; 66 minutes, 5% arginine): 0.333
NCCCC[C@H](N)C(=O)O [Lysine, lysine] | no change was observed compared to the negative control | 0.537 | 0.547 | 0.552 | 0.553 | 0.555 | 0.555 | no appreciable change in OD (610 nm) or a rise in OD (610 nm) | 0.416 | 0.413 | 0.411 | 0.410 | 0.409 | –
Cl.Cl.NCCCCC(N)C(=O)[O-].NCCCCC(N)C(=O)[O-].O.O.[Zn+2] (centres unmarked) [ZLC, zinc-lysine-chloride complex] | Large aggregates of material slowly formed and settled to the bottom of the dishes | 0.549 | 0.551 | 0.574 | 0.515 | 0.357 | 0.182 | peak of absorbance at about 21 minutes, followed by a significant drop | 0.454 | 0.554 | 0.175 | 0.032 | 0.014 | time by which significant drop in absorbance has occurred [2, 18]: about 55 minutes; time of peak of absorbance [2, 18]: about 21 minutes; final test result, absorbance at 610 nm [3]: nearly zero absorbance; time kept in solution without precipitation of ZnO [4]: more than 3 months
[Cl-].[Cl-].[Zn+2] [ZnCl2, zinc chloride] | – | 0.572 | 0.584 | 0.615 | 0.680 | 0.652 | 0.397 | no appreciable change in OD (610 nm) or a rise in OD (610 nm) | 0.315 | 0.315 | 0.316 | 0.391 | 0.255 | –
[O]=[Zn] [zinc oxide] | only undissolved and/or precipitated metal salt | – | – | – | – | – | – | – | – | – | – | – | – | –
copper-lysine complex | Large aggregates of material slowly formed and settled to the bottom of the dishes | – | – | – | – | – | – | – | – | – | – | – | – | –
zinc-arginine complex [Zn-Arg] | Large aggregates of material slowly formed and settled to the bottom of the dishes | 0.563 | 0.568 | 0.575 | 0.620 | 0.616 | 0.361 | brief rise in absorbance which peaks at about 28 minutes, followed by a significant drop in absorbance | 0.436 | 0.474 | 0.623 | 0.369 | 0.025 | time by which significant drop in absorbance has occurred [2, 18]: about 55 minutes; time of peak of absorbance [2, 18]: about 28 minutes; final test result, absorbance at 610 nm [3]: nearly zero absorbance
